Assay results reported in PubChem BioAssay AID330 (DTP/NCI, 2004).
“And” between values parts separate entries of the source, which are not always exact repeats. Equal values may be shown once. Toxic doses and inconclusive results are not listed. Peptide text beside a SMILES is read from it. * marks the point of attachment. Cbz = O=C(OCc1ccccc1)*

Test system: P388 leukemia ip, CD2F1 mice, survival T/C
Test: NCI In Vivo Anticancer Drug Screen. Data for tumor model P388 Leukemia (intraperitoneal) in CD2F1 (CDF1) mice
Settings: endpoint: median survival time, higher = longer survival
Procedure, shortened: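 Mice carrying the transplanted tumor received test compound or vehicle. Survival was recorded in each group, and the value is the treated-group measurement divided by that of the vehicle-treated control group.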

[1] = dose: 50.0 mg/kg/injection, schedule: Q01DX009 (ip), vehicle: saline with Tween-80
[2] = dose: 100.0 mg/kg/injection, schedule: Q01DX009 (ip), vehicle: saline with Tween-80
[3] = dose: 50.0 mg/kg/injection, schedule: Q01DX005 (ip), vehicle: saline with Tween-80
[4] = dose: 100.0 mg/kg/injection, schedule: Q01DX005 (ip), vehicle: saline with Tween-80
[5] = dose: 200.0 mg/kg/injection, schedule: Q01DX005 (ip), vehicle: saline with Tween-80
[6] = dose: 12.5 mg/kg/injection, schedule: Q01DX009 (ip), vehicle: saline
[7] = dose: 25.0 mg/kg/injection, schedule: Q01DX009 (ip), vehicle: saline
[8] = dose: 6.25 mg/kg/injection, schedule: Q01DX005 (ip), vehicle: saline with Tween-80
[9] = dose: 100.0 mg/kg/injection, schedule: Q04DX002 (ip), vehicle: saline with Tween-80
[10] = dose: 200.0 mg/kg/injection, schedule: Q04DX002 (ip), vehicle: saline with Tween-80
[11] = dose: 200.0 mg/kg/injection, schedule: Q01DX009 (ip), vehicle: saline with Tween-80
[12] = dose: 60.0 mg/kg/injection, schedule: Q01DX005 (ip), vehicle: Klucel (hydroxypropylcellulose) (HPC)

Question: With `CC[As](CC)SC1CCC2(C)C(=CCC3C4CCC(=O)C4(C)CCC32)C1` (centres undefined) as the molecule, how does the T/C (dose: 12.5 mg/kg/injection, schedule: Q01DX009 (ip), vehicle: distilled water + Tween-80) read?
Answer: 105 % of control

Question: What about the T/C (dose: 25.0 mg/kg/injection, schedule: Q01DX009 (ip), vehicle: distilled water + Tween-80) of the same molecule?
Answer: 100 % of control and 117 % of control

Question: What about the T/C (dose: 50.0 mg/kg/injection, schedule: Q01DX009 (ip), vehicle: distilled water + Tween-80) of the same molecule?
Answer: 120 % of control

Question: What about the T/C (dose: 100.0 mg/kg/injection, schedule: Q01DX009 (ip), vehicle: distilled water + Tween-80) of the same molecule?
Answer: 156 % of control

Question: What does the source list for `c1ccc2c(c1)ccc1c[n+]3ccccc3cc12`?
Answer: T/C (dose: 0.25 mg/kg/injection, schedule: Q01DX009 (ip), vehicle: saline): 100 % of control; T/C (dose: 0.5 mg/kg/injection, schedule: Q01DX009 (ip), vehicle: saline): 104 % of control; T/C (dose: 1.0 mg/kg/injection, schedule: Q01DX009 (ip), vehicle: saline): 100 % of control; T/C (dose: 1.25 mg/kg/injection, schedule: Q04DX003 (ip), vehicle: other): 100 % of control; T/C (dose: 2.5 mg/kg/injection, schedule: Q04DX003 (ip), vehicle: other): 107 % of control

Question: With `O=C(Cl)CC1CC(=O)OC1=O` (centres undefined) as the molecule, how does the T/C [1] read?
Answer: 100 % of control

Question: And the T/C [2]?
Answer: 95 % of control

Question: What does the source list for `CCOc1cc(/C=N/NC(=O)N(c2ccccc2)c2ccccc2)ccc1O`?
Answer: T/C [3]: 88 % of control; T/C [4]: 88 % of control

Question: Which results are given for `CCN(CC)CCC(CNc1c(C)cnc2cc(Cl)ccc12)c1ccc(OC)cc1` (centres undefined)?
Answer: T/C [3]: 105 % of control; T/C [4]: 105 % of control; T/C [5]: 105 % of control

Question: Which results are given for `CC(=O)CC(=O)Nc1ccccc1`?
Answer: T/C [6]: 105 % of control; T/C [7]: 94 % of control; T/C (dose: 50.0 mg/kg/injection, schedule: Q01DX009 (ip), vehicle: saline): 88 % of control

Question: Which T/C (dose: 12.5 mg/kg/injection, schedule: Q01DX009 (ip), vehicle: water) does the source give for `COC(=O)C(COS(=O)(=O)c1ccc(C)cc1)NC(=O)OCc1ccc(OC)cc1` (centres undefined) here?
Answer: 98 % of control

Question: And the T/C (dose: 25.0 mg/kg/injection, schedule: Q01DX009 (ip), vehicle: water)?
Answer: 95 % of control

Question: And the T/C (dose: 50.0 mg/kg/injection, schedule: Q01DX009 (ip), vehicle: water)?
Answer: 89 % of control

Question: And the T/C (dose: 100.0 mg/kg/injection, schedule: Q01DX009 (ip), vehicle: water)?
Answer: 91 % of control

Question: What about the T/C (dose: 200.0 mg/kg/injection, schedule: Q01DX009 (ip), vehicle: water) of the same molecule?
Answer: 91 % of control

Question: Which T/C (dose: 100.0 mg/kg/injection, schedule: Q04DX003 (ip), vehicle: saline) does the source give for `CN1CCCC(Cl)(C(=O)c2ccccc2)C1` (centres undefined) here?
Answer: 106 % of control

Question: And the T/C (dose: 200.0 mg/kg/injection, schedule: Q04DX003 (ip), vehicle: saline)?
Answer: 100 % of control

Question: `CCCCCCCCCCCC[n+]1cc2ccccc2cc1C` was tested. Which T/C [8] did it give?
Answer: 115 % of control and 122 % of control

Question: Which T/C (dose: 6.25 mg/kg/injection, schedule: Q01DX009 (ip), vehicle: saline) does the source give for `C[N+](c1ccc(Cl)cc1)=S(C)(C)=O` here?
Answer: 99 % of control

Question: What about the T/C [6] of the same molecule?
Answer: 94 % of control

Question: What about the T/C [7] of the same molecule?
Answer: 98 % of control

Question: How did the T/C [9] turn out when `CC(C)C12OC1CC13OC1C1OC1C1OC132` (centres undefined) was run?
Answer: 101 % of control

Question: And the T/C [10]?
Answer: 99 % of control

Question: And the T/C (dose: 400.0 mg/kg/injection, schedule: Q04DX002 (ip), vehicle: saline with Tween-80)?
Answer: 94 % of control

Question: Which T/C (dose: 2.5 mg/kg/injection, schedule: Q04DX002 (ip), vehicle: saline with Tween-80) does the source give for `COc1cc2c(c(OC)c1OC)-c1cc3c(cc1CC1COC(=O)C1C2)OCO3` (centres undefined) here?
Answer: 97 % of control and 96 % of control and 102 % of control

Question: And the T/C (dose: 5.0 mg/kg/injection, schedule: Q04DX002 (ip), vehicle: saline with Tween-80)?
Answer: 95 % of control [middle of 6 runs]

Question: What about the T/C (dose: 10.0 mg/kg/injection, schedule: Q04DX002 (ip), vehicle: saline with Tween-80) of the same molecule?
Answer: 101 % of control [middle of 6 runs]

Question: And the T/C (dose: 12.5 mg/kg/injection, schedule: Q01DX009 (ip), vehicle: saline with Tween-80)?
Answer: 100 % of control

Question: What about the T/C (dose: 20.0 mg/kg/injection, schedule: Q04DX002 (ip), vehicle: saline with Tween-80) of the same molecule?
Answer: 96 % of control and 104 % of control

Question: What about the T/C (dose: 25.0 mg/kg/injection, schedule: Q01DX009 (ip), vehicle: saline with Tween-80) of the same molecule?
Answer: 97 % of control

Question: And the T/C (dose: 25.0 mg/kg/injection, schedule: Q04DX002 (ip), vehicle: saline with Tween-80)?
Answer: 100 % of control

Question: And the T/C [1]?
Answer: 95 % of control

Question: What about the T/C (dose: 50.0 mg/kg/injection, schedule: Q04DX002 (ip), vehicle: saline with Tween-80) of the same molecule?
Answer: 104 % of control

Question: What about the T/C [9] of the same molecule?
Answer: 87 % of control and 119 % of control

Question: And the T/C [10]?
Answer: 91 % of control

Question: `COc1cc2c(cc1O)C(=O)CCC=C2` was tested. Which T/C [1] did it give?
Answer: 103 % of control

Question: And the T/C [2]?
Answer: 101 % of control

Question: What about the T/C [11] of the same molecule?
Answer: 108 % of control

Question: For `CCOc1c(N=Nc2ccccc2)c(C)nn1C(N)=S`, which T/C (dose: 60.0 mg/kg/injection, schedule: Q01DX005 (ip), vehicle: Klucel + Tween-80) is on record?
Answer: 95 % of control

Question: What about the T/C (dose: 120.0 mg/kg/injection, schedule: Q01DX005 (ip), vehicle: Klucel + Tween-80) of the same molecule?
Answer: 102 % of control

Question: What about the T/C (dose: 240.0 mg/kg/injection, schedule: Q01DX005 (ip), vehicle: Klucel + Tween-80) of the same molecule?
Answer: 95 % of control

Question: How did the T/C [3] turn out when `COC(=O)CNC(=O)C(NC(=O)C1CCCN1C(=O)OCc1ccccc1)C(C)C` (stereo not drawn) (Cbz-Pro-Val-Gly-OMe; configuration not given here) was run?
Answer: 105 % of control

Question: What about the T/C [4] of the same molecule?
Answer: 100 % of control

Question: What about the T/C [5] of the same molecule?
Answer: 100 % of control

Question: `CCCCCCC(=O)/C=C/c1cccc([N+](=O)[O-])c1` was tested. Which T/C [1] did it give?
Answer: 89 % of control

Question: And the T/C [2]?
Answer: 95 % of control

Question: And the T/C [11]?
Answer: 94 % of control

Question: What does the source list for `COc1ccc(N2CCN(/C=C3\Cc4ccc(F)cc4C3=O)CC2)cc1`?
Answer: T/C (dose: 100.0 mg/kg/injection, schedule: Q04DX002 (ip), vehicle: Klucel (hydroxypropylcellulose) (HPC)): 103 % of control; T/C (dose: 200.0 mg/kg/injection, schedule: Q04DX002 (ip), vehicle: Klucel (hydroxypropylcellulose) (HPC)): 99 % of control; T/C (dose: 400.0 mg/kg/injection, schedule: Q04DX002 (ip), vehicle: Klucel (hydroxypropylcellulose) (HPC)): 95 % of control

Question: For `COc1cc(Br)c(C(=O)N2CCc3ccccc32)cc1OC`, which T/C (dose: 12.5 mg/kg/injection, schedule: Q01DX009 (ip), vehicle: other) is on record?
Answer: 93 % of control

Question: And the T/C (dose: 25.0 mg/kg/injection, schedule: Q01DX009 (ip), vehicle: other)?
Answer: 90 % of control

Question: Which results are given for `COc1cc(/C=N/NC(=O)COCC(=O)N/N=C/c2ccc(O)cc2OC)ccc1O`?
Answer: T/C [8]: 103 % of control; T/C (dose: 12.5 mg/kg/injection, schedule: Q01DX005 (ip), vehicle: saline with Tween-80): 101 % of control; T/C (dose: 25.0 mg/kg/injection, schedule: Q01DX005 (ip), vehicle: saline with Tween-80): 105 % of control

Question: For `COc1cc(OC)c(OC)cc1/C=C/[N+](=O)[O-]`, which T/C (dose: 100.0 mg/kg/injection, schedule: Q04DX003 (ip), vehicle: Klucel (hydroxypropylcellulose) (HPC)) is on record?
Answer: 102 % of control

Question: And the T/C (dose: 200.0 mg/kg/injection, schedule: Q04DX003 (ip), vehicle: Klucel (hydroxypropylcellulose) (HPC))?
Answer: 100 % of control

Question: And the T/C (dose: 400.0 mg/kg/injection, schedule: Q04DX003 (ip), vehicle: Klucel (hydroxypropylcellulose) (HPC))?
Answer: 111 % of control

Question: With `CCN(CC)CCOc1cccc(NC(=O)CN(CC)CC)c1` as the molecule, how does the T/C (dose: 15.0 mg/kg/injection, schedule: Q01DX005 (ip), vehicle: Klucel (hydroxypropylcellulose) (HPC)) read?
Answer: 106 % of control

Question: What about the T/C (dose: 30.0 mg/kg/injection, schedule: Q01DX005 (ip), vehicle: Klucel (hydroxypropylcellulose) (HPC)) of the same molecule?
Answer: 103 % of control

Question: And the T/C [12]?
Answer: 105 % of control and 96 % of control

Question: How did the T/C (dose: 12.5 mg/kg/injection, schedule: Q01DX009 (ip), vehicle: Klucel (hydroxypropylcellulose) (HPC)) turn out when `C=CCOc1c2c(cc3ccc(=O)oc13)CC=CO2` was run?
Answer: 95 % of control

Question: What about the T/C (dose: 25.0 mg/kg/injection, schedule: Q01DX009 (ip), vehicle: Klucel (hydroxypropylcellulose) (HPC)) of the same molecule?
Answer: 105 % of control

Question: And the T/C (dose: 50.0 mg/kg/injection, schedule: Q01DX009 (ip), vehicle: Klucel (hydroxypropylcellulose) (HPC))?
Answer: 98 % of control and 100 % of control

Question: And the T/C (dose: 100.0 mg/kg/injection, schedule: Q01DX009 (ip), vehicle: Klucel (hydroxypropylcellulose) (HPC))?
Answer: 112 % of control

Question: What does the source list for `COc1ccc2c(c1)CCC1=C2CCC2(C)C1=CCS2(=O)=O` (centres undefined)?
Answer: T/C [12]: 105 % of control; T/C (dose: 120.0 mg/kg/injection, schedule: Q01DX005 (ip), vehicle: Klucel (hydroxypropylcellulose) (HPC)): 90 % of control; T/C (dose: 240.0 mg/kg/injection, schedule: Q01DX005 (ip), vehicle: Klucel (hydroxypropylcellulose) (HPC)): 97 % of control

Question: `N#Cc1c(-c2ccccc2)nc2sccn12` was tested. Which T/C (dose: 100.0 mg/kg/injection, schedule: Q01DX001 (ip), vehicle: Klucel (hydroxypropylcellulose) (HPC)) did it give?
Answer: 88 % of control

Question: What about the T/C (dose: 400.0 mg/kg/injection, schedule: Q01DX001 (ip), vehicle: Klucel (hydroxypropylcellulose) (HPC)) of the same molecule?
Answer: 91 % of control
